In paper PMC12118337, “Development of a Peptide Inhibitor Targeting the C‐SH2 Domain of the SHP2 Phosphatase” (Chembiochem, 2025):
Non-standard residues stand in square brackets, D forms with d. Residues, ends and D or L forms follow the SMILES beside them. *: point of attachment. 5FAM = O=C1OC2(c3ccc(O)cc3Oc3cc(O)ccc32)c2ccc(C(=O)*)cc21; Pmp = N[C@@H](Cc1ccc(CP(=O)(O)O)cc1)C(=O)O; pY = N[C@@H](Cc1ccc(OP(=O)(O)O)cc1)C(=O)O

Key:
SHP2 N‐SH2 domain = target: T1, SHP2 N‐SH2 domain (Homo sapiens, UniProt Q06124); experiment: Fluorescence polarization (FP) binding assay, SHP2 N-SH2 domain; details: 100 nM FAM-labelled peptide; for Kd: increasing N-SH2 protein, 50 mM HEPES pH 7.5, 150 mM NaCl, 1 mM EDTA, 0.05% Tween 20, FP at 10 min, three independent experiments in technical triplicates, read-out: K D ± SEM, N‐SH2 (FP)
T1 construct: SHP2 N-SH2 domain (1–105), C-SH2 domain (106–220), PTP domain (224–541) and; His6 (pETM22 vector) (N, cleaved yes); made in house; host or cells: E. coli BL21(DE3)
T1 sequence (Q06124 1-105): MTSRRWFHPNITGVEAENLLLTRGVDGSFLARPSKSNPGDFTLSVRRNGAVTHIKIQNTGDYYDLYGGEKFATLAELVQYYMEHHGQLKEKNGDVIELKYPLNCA
Protocol: (§1) buffer and stored in 5 mL binding buffer at 4°C. His-tagged 3C protease (0.5 mg; EMBL) was added to the pooled eluted fractions and dialysed using Spectra Por Dialysis Tubing (MWCO 6-8 kDa, 23 mm; Spectrum Labs) in 1 L of binding buffer at 4°C for 3 hours, then overnight in fresh buffer. A new column was prepared by loading 2 mL Ni-NTA Agarose (Invitrogen) as a 50% slurry in EtOH. The column was washed with 10 mL H2O to remove the EtOH and equilibrated with 10 mL binding buffer. The protein/3C protease mixture was loaded onto the column and incubated for 1 hour at 4°C on a rocker. The flow through containing the protein was collected, the column was washed with 100 mL binding buffer and the 3C protease was eluted with 5 mL elution buffer. Protein purification was monitored by SDS-PAGE using NuPAGE 4-12% Bis-Tris Protein Gels (Invitrogen) run in MOPS buffer (50 mM MOPS, 50 mM Tris-HCl pH 7.7, 1 mM EDTA, 0.1% SDS) followed by Coomassie staining using Coomassie Brilliant Blue (Roth). The purified protein was dialysed into the final storage buffer (50 mM HEPES pH 7.5, 150 mM NaCl, 2 mM DTT, 20% glycerol). Aliquots were prepared and stored at -80°C until required. […]
(§2) 4. Fluorescence polarization
(§3) Fluorescence polarization (FP) was used to measure the binding of FAM-labelled peptides to the SHP2 C-SH2, SHP2 N-SH2, SHP2 PTP, CSK SH2 or Src SH2 domains. Each peptide was added to increasing concentrations of SHP2 C-SH2, SHP2 N-SH2, SHP2 PTP, CSK SH2 or Src SH2 protein in FP buffer (50 mM HEPES pH 7.5, 150 mM NaCl, 1 mM EDTA, 0.05% Tween 20) to give a final peptide […]
(§4) concentration of 100 nM in a final volume of 200 µL. For baseline subtraction, each peptide was added to FP buffer, instead of protein, with a final peptide concentration of 100 nM in a final volume of 200 µL. Samples were mixed gently then 3 x 60 µL of each sample was transferred into triplicate wells in a 96-well plate (OptiPlate-96 F Black; PerkinElmer). The FP was immediately measured on a Synergy H1 Microplate Reader (BioTek) with the excitation and emission monitored at 485 nm and 528 nm, respectively, over 30 minutes. FP values were automatically calculated by the Gen5 3.03 (BioTek) software associated with the microplate reader. Data were analysed in Excel 2016 by subtracting baseline values from FP values at 10 minutes. Data were then further analysed in GraphPad Prism 6 by plotting the baseline subtracted FP values against the protein concentration and fitting the data to a variable slope model of non-linear regression to obtain the KD values. Data are from three independent experiments, each performed in technical triplicates.
(§5) 5. Isothermal titration calorimetry […]
(§6) Analysis Software (Malvern Panalytical). For the data analysis, a 1:1 binding stoichiometry between the Ac-ITSM(pTyr) and SH2 domain was assumed. ITC measurements were performed once.

SHP2 C‐SH2 domain = target: T2, SHP2 C‐SH2 domain (Homo sapiens, UniProt Q06124); experiment: Fluorescence polarization (FP) binding assay, SHP2 C-SH2 domain; details: 100 nM FAM-labelled peptide; for Kd: read-out: K D ± SEM, C‐SH2 (FP)
T2 construct: SHP2 N-SH2 domain (1–105), C-SH2 domain (106–220), PTP domain (224–541) and; His6 (pETM22 vector) (N, cleaved yes); made in house; host or cells: E. coli BL21(DE3)
T2 sequence (Q06124 106-220): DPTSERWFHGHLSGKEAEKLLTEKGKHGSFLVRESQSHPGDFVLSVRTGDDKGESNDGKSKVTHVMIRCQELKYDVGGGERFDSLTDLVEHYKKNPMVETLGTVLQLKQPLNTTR
Protocol: as §1, §2, §3, §4, §5, §6

[1] = increasing C-SH2 protein, 50 mM HEPES pH 7.5, 150 mM NaCl, 1 mM EDTA, 0.05% Tween 20, FP at 10 min, three independent experiments in technical triplicates

Structure (SMILES)	Kd (SHP2 N‐SH2 domain) [nM]	Kd (SHP2 C‐SH2 domain; [1]) [nM]	binding to the N‐SH2 domain, in words (SHP2 N‐SH2 domain)	binding to the C‐SH2 domain, in words (SHP2 C‐SH2 domain)	K D ± SEM, C‐SH2 (FP) (SHP2 C‐SH2 domain; [1])
CC[C@H](C)[C@H](NC(=O)[C@@H](NC(=O)[C@H](C)NC(=O)[C@H](Cc1ccc(OP(=O)(O)O)cc1)NC(=O)[C@H](CCC(=O)O)NC(=O)[C@@H](NC(=O)[C@H](CCC(N)=O)NC(=O)[C@H](CCC(=O)O)NC(=O)c1ccc2c(c1)C(=O)OC21c2ccc(O)cc2Oc2cc(O)ccc21)[C@@H](C)O)[C@@H](C)O)C(=O)N[C@H](C(=O)N[C@@H](C)C(=O)N1CCC[C@H]1C(N)=O)C(C)C [compound 8] (5FAM-EQTE[pY]ATIVAP-NH2)	> 2000	185 ± 30.8	–	–	–
CC[C@H](C)[C@H](NC(=O)[C@@H](NC(=O)[C@H](C)NC(=O)[C@H](Cc1ccc(CP(=O)(O)O)cc1)NC(=O)[C@H](CCC(=O)O)NC(=O)[C@@H](NC(=O)[C@H](CCC(N)=O)NC(=O)[C@H](CCC(=O)O)NC(=O)c1ccc2c(c1)C(=O)OC21c2ccc(O)cc2Oc2cc(O)ccc21)[C@@H](C)O)[C@@H](C)O)C(=O)N[C@H](C(=O)N[C@@H](Cc1ccccc1)C(=O)N1CCC[C@H]1C(N)=O)C(C)C [FAM‐ITSM(Pmp)] (5FAM-EQTE[Pmp]ATIVFP-NH2)	> 10000	> 2000	greatly reduced binding	marked decrease in binding affinity	–
CC[C@H](C)[C@H](NC(=O)[C@H](C)NC(=O)[C@H](C)NC(=O)[C@H](Cc1ccc(OP(=O)(O)O)cc1)NC(=O)[C@H](CCC(=O)O)NC(=O)[C@@H](NC(=O)[C@H](CCC(N)=O)NC(=O)[C@H](CCC(=O)O)NC(=O)c1ccc2c(c1)C(=O)OC21c2ccc(O)cc2Oc2cc(O)ccc21)[C@@H](C)O)C(=O)N[C@H](C(=O)N[C@@H](Cc1ccccc1)C(=O)N1CCC[C@H]1C(N)=O)C(C)C [compound 5] (5FAM-EQTE[pY]AAIVFP-NH2)	1140 ± 585	126 ± 6.2	–	–	–
CC[C@H](C)[C@H](NC(=O)[C@@H](NC(=O)[C@H](C)NC(=O)[C@H](Cc1ccc(OP(=O)(O)O)cc1)NC(=O)[C@H](CCC(=O)O)NC(=O)[C@H](CCC(=O)O)NC(=O)[C@H](CCCCN)NC(=O)c1ccc2c(c1)C(=O)OC21c2ccc(O)cc2Oc2cc(O)ccc21)[C@@H](C)O)C(=O)N[C@@H](CCCCN)C(=O)N[C@@H](Cc1c[nH]cn1)C(=O)N1CCC[C@H]1C(N)=O [compound 20] (5FAM-KEE[pY]ATIKHP-NH2)	–	> 500	–	–	–
CC[C@H](C)[C@H](NC(=O)[C@@H](NC(=O)[C@H](C)NC(=O)[C@H](Cc1ccc(OP(=O)(O)O)cc1)NC(=O)[C@H](CCC(=O)O)NC(=O)[C@@H](NC(=O)[C@H](CCC(N)=O)NC(=O)c1ccc2c(c1)C(=O)OC21c2ccc(O)cc2Oc2cc(O)ccc21)[C@@H](C)O)[C@@H](C)O)C(=O)N[C@@H](CCCCN)C(=O)N[C@@H](Cc1ccccc1)C(=O)N1CCC[C@H]1C(N)=O [compound 16] (5FAM-QTE[pY]ATIKFP-NH2)	1090 ± 199	86 ± 2.43	–	–	–
CC[C@H](C)[C@H](NC(=O)[C@@H](NC(=O)[C@H](C)NC(=O)[C@H](Cc1ccc(OP(=O)(O)O)cc1)NC(=O)[C@H](CCC(=O)O)NC(=O)[C@@H](NC(=O)[C@H](CCCCN)NC(=O)c1ccc2c(c1)C(=O)OC21c2ccc(O)cc2Oc2cc(O)ccc21)[C@@H](C)O)[C@@H](C)O)C(=O)N[C@@H](CCCCN)C(=O)N[C@@H](Cc1c[nH]cn1)C(=O)N1CCC[C@H]1C(N)=O [compound 19] (5FAM-KTE[pY]ATIKHP-NH2)	–	105 ± 3.6	–	–	–
CC(C)[C@H](NC(=O)[C@H](C)NC(=O)[C@@H](NC(=O)[C@H](C)NC(=O)[C@H](Cc1ccc(OP(=O)(O)O)cc1)NC(=O)[C@H](CCC(=O)O)NC(=O)[C@@H](NC(=O)[C@H](CCC(N)=O)NC(=O)[C@H](CCC(=O)O)NC(=O)c1ccc2c(c1)C(=O)OC21c2ccc(O)cc2Oc2cc(O)ccc21)[C@@H](C)O)[C@@H](C)O)C(=O)N[C@@H](Cc1ccccc1)C(=O)N1CCC[C@H]1C(N)=O [compound 6] (5FAM-EQTE[pY]ATAVFP-NH2)	> 10000	–	–	–	no binding
CC[C@H](C)[C@H](NC(=O)[C@@H](NC(=O)[C@H](C)NC(=O)[C@H](Cc1ccc(OP(=O)(O)O)cc1)NC(=O)[C@H](C)NC(=O)[C@@H](NC(=O)[C@H](CCC(N)=O)NC(=O)[C@H](CCC(=O)O)NC(=O)c1ccc2c(c1)C(=O)OC21c2ccc(O)cc2Oc2cc(O)ccc21)[C@@H](C)O)[C@@H](C)O)C(=O)N[C@H](C(=O)N[C@@H](Cc1ccccc1)C(=O)N1CCC[C@H]1C(N)=O)C(C)C [compound 4] (5FAM-EQTA[pY]ATIVFP-NH2)	234 ± 17.6	95.1 ± 14.4	–	–	–
CC[C@H](C)[C@H](NC(=O)[C@@H](NC(=O)[C@H](C)NC(=O)[C@H](Cc1ccc(OP(=O)(O)O)cc1)NC(=O)[C@H](CCC(=O)O)NC(=O)[C@@H](NC(=O)[C@H](CCC(N)=O)NC(=O)c1ccc2c(c1)C(=O)OC21c2ccc(O)cc2Oc2cc(O)ccc21)[C@@H](C)O)[C@@H](C)O)C(=O)N[C@@H](CCCCN)C(=O)N[C@H](C(=O)N1CCC[C@H]1C(N)=O)[C@@H](C)CC [compound 12] (5FAM-QTE[pY]ATIKIP-NH2)	–	141 ± 6.2	–	–	–
CC[C@H](C)[C@H](NC(=O)[C@@H](NC(=O)[C@H](C)NC(=O)[C@H](Cc1ccc(OP(=O)(O)O)cc1)NC(=O)[C@H](CCC(=O)O)NC(=O)[C@@H](NC(=O)[C@H](CCCCN)NC(=O)c1ccc2c(c1)C(=O)OC21c2ccc(O)cc2Oc2cc(O)ccc21)[C@@H](C)O)[C@@H](C)O)C(=O)N[C@@H](CCCCN)C(=O)N[C@@H](Cc1ccccc1)C(=O)N1CCC[C@H]1C(N)=O [compound 15] (5FAM-KTE[pY]ATIKFP-NH2)	1550 ± 528	61.5 ± 1.83	–	–	–
CC[C@H](C)[C@H](NC(=O)[C@@H](NC(=O)[C@H](C)NC(=O)[C@H](Cc1ccc(OP(=O)(O)O)cc1)NC(=O)[C@H](CCC(=O)O)NC(=O)[C@@H](NC(=O)[C@H](CCC(N)=O)NC(=O)[C@H](C)NC(=O)c1ccc2c(c1)C(=O)OC21c2ccc(O)cc2Oc2cc(O)ccc21)[C@@H](C)O)[C@@H](C)O)C(=O)N[C@H](C(=O)N[C@@H](Cc1ccccc1)C(=O)N1CCC[C@H]1C(N)=O)C(C)C [peptide 1] (5FAM-AQTE[pY]ATIVFP-NH2)	295 ± 37.2	62 ± 1.98	–	–	–
CC[C@H](C)[C@H](NC(=O)[C@@H](NC(=O)[C@H](C)NC(=O)[C@H](Cc1ccc(OP(=O)(O)O)cc1)NC(=O)[C@H](CCC(=O)O)NC(=O)[C@@H](NC(=O)[C@H](CCC(N)=O)NC(=O)[C@H](CCC(=O)O)NC(=O)c1ccc2c(c1)C(=O)OC21c2ccc(O)cc2Oc2cc(O)ccc21)[C@@H](C)O)[C@@H](C)O)C(=O)N[C@@H](CCCCN)C(=O)N[C@@H](Cc1ccccc1)C(=O)N1CCC[C@H]1C(N)=O [compound 9] (5FAM-EQTE[pY]ATIKFP-NH2)	> 2000	72 ± 2.61	–	–	–
CC[C@H](C)[C@H](NC(=O)[C@@H](NC(=O)[C@H](C)NC(=O)[C@H](Cc1ccc(OP(=O)(O)O)cc1)NC(=O)[C@H](CCC(=O)O)NC(=O)[C@@H](NC(=O)[C@H](C)NC(=O)[C@H](CCC(=O)O)NC(=O)c1ccc2c(c1)C(=O)OC21c2ccc(O)cc2Oc2cc(O)ccc21)[C@@H](C)O)[C@@H](C)O)C(=O)N[C@H](C(=O)N[C@@H](Cc1ccccc1)C(=O)N1CCC[C@H]1C(N)=O)C(C)C [peptide 2] (5FAM-EATE[pY]ATIVFP-NH2)	58 ± 4.6	51.3 ± 1.08	–	–	–
